Measurements published in US5840697A, “Peptide inhibitors of calmodulin” (Torrey Pines Institute for Molecular Studies, priority 1996, dated 1998).
Where two headings read alike, the source gives them in different places. Square brackets hold non-standard residues; d marks the D form. Peptide text beside a SMILES is read from it.

Tests used:
phosphodiesterase = assay: calcium-dependent phosphodiesterase assay in the absence of calmodulin; assay type: biochemical; settings: Table III
Method: To sample assay tubes were added the following components: assay buffer, 25 ul; CaCl2, 5 ul; 5'-nucleotidase, 7.5 ul (stock solution is 10 units/ml); calmodulin 5 units; calmodulin inhibitor peptides to obtain the desired final concentration of 50 μM. The volume was then made up to 200 ul with water. Control blanks were prepared replacing the peptides with water. The added components were thoroughly mixed and the tubes incubated at 30° C. for 10 min. Then, 25 ul of cAMP at 10.8 mM was added and incubated for 90 min at 30° C. The reaction was stopped by the addition of 50 ul of 55% trichloroacetic acid (TCA). The samples were centrifuged to remove the protein precipitate and the 50 ul of the supernatant was withdrawn for phosphate measurement. To the supernatant aliquot, 50 ul ammonium molybdate (0.55% in 1.1 N sulfuric acid) was added, followed by the addition of 5 ul of reducing agent (24 g sodium bisulfite, 2.4 g sodium sulfite, 0.5 g of 1-amino-2-naphthol-4-sulfonic acid in 200 ml of water), and the contents were mixed by vortexing. The absorbance of the solution were read at 660 nm using water as a blank, identified as control "Calmo."
As described above, one of the undesirable biological effects of existing calmodulin inhibitors is their non-specific binding to other proteins and the like. Therefore, the specificity of the instant inhibitory peptides for calmodulin was examined. The specificity was determined using the calcium-dependent phosphodiesterase assay described in Example I. The assay was carried out for the determination of IC50 values in the presence of calmodulin (IC50 value for calmodulin) and in the absence of calmodulin (IC50 for phosphodiesterase), the latter of which provides the effect of the inhibitory peptides on the phosphodiesterase.

[1] = tested on: normal rat kidney (NRK) cells; assay: DNA synthesis ([3H]-thymidine incorporation) in cell culture; assay type: cell-based; settings: added at 5 hr
Method: Following the methods described in Lopez-Girona et al., Cell Calcium, 18:30-40 (1995), which is incorporated herein by reference, the effect of calmodulin inhibitory peptides on DNA synthesis was investigated. Specifically, peptides were added to culture media and assessed for their ability to inhibit the progression of normal rat kidney (NRK) cells into the S phase of the cell cycle; the DNA synthesis phase into the cell growth cycle. Such inhibition has been shown for existing anti-calmodulin drugs such as W13.
NRK cells were made quiescent by growing them to confluence in Dulbecco's minimum essential medium supplemented with 5% fetal calf serum (FCS), and then kept for 3-4 days in the same medium but with only 0.5% FCS. To allow them to re-enter the cell cycle, quiescent cells were trypsinized and subcultured at a lower density in fresh medium supplemented with 5% FCS.
DNA synthesis was analyzed by the measurement of [^3 H]-thymidine into whole cell DNA. NRK cells (10^5 per 35 mm plate) were pulse labeled for 1 hr with [methyl-^3 H]-thymidine (5 Ci/mmol) at 4 μCi/ml in Dulbecco's minimum essential medium supplemented with 5% FCS. Precipitation and solubilization of DNA was carried out as described in Cripps-Wolfman et al., J. Biol. Chem., 264:19478-19486 (1989), which is incorporated herein by reference.
The NRK cells stimulated to proliferate by addition of 5% FCS enter synchronously into the cell cycle and start the S phase after 12 hr reaching a maximum between 18 to 20 hr. The peptides were added at 5 hr (time at which the cells have already reenter the G1 phase). […] Similar results were found between the (D)-amino acid peptides and their (L)-counterpart.

rat liver cells = assay: in vivo rat model: DNA synthesis of rat liver cells after partial hepatectomy; settings: intravenous injection 5 hours after partial hepatectomy, measured 24 hours post hepatectomy
Excerpt: The effect that calmodulin inhibitors have on DNA synthesis were also studied in vivo in a rat model. Rat liver cells are a useful in vivo system for studying synchronized cells and the cell cycle. By partial hepatectomy, the hepatocyte quiescent cells present in normal adult rat liver can be stimulated to enter the replicative cell cycle and the effect of inhibitors on the cycle analyzed. This example provides the effect of the subject calmodulin inhibitory peptides on the DNA synthesis of rat liver cells in partial hepatectomy stage following intra venal injection of the peptides.
Male Sprague-Dawley rats ([…]; 2 rats per peptide or control) were fasted overnight. Partial hepatectomies were carried out under Ketolar anesthesia (Parke-Davis; Ann Arbor, Mich.), following the procedure described by Higgins and Anderson in Arch. Pathol., 12:186-202 (1931), which is incorporated herein by reference. […] DNA synthesis was assessed by measuring the radioactivity incorporated into DNA following an intraperitoneal injection (0.5 mCi/g body weight) of [^3 H] thymidine 1 hr prior to killing the rat and at 23 hours post hepatectomy. […] The liver tissue was homogenized in 10% trifluoroacetic acid at 4° C. and the DNA extracted and its radioactivity measured following the procedure described by Burton, Biochem. J., 62:315-320 (1956), which is incorporated herein by reference. […]

calmodulin = calmodulin (Homo sapiens, UniProt P0DP23); assay: calcium-dependent phosphodiesterase assay (calmodulin activity); assay type: biochemical
Method: In the calcium dependent phosphodiesterase assay, calmodulin can be assayed by its ability to stimulate phosphodiesterase activity as determined by a two-step assay procedure illustrated by reactions (1) and (2) below. [drawing 1]
During the first step of the assay cyclic adenosine 3'5'-monophosphate (cAMP) is incubated with calcium-activated phosphodiesterase (Cal-PDE), which hydrolyses the 3'bond producing adenosine 5'-monophosphate (5'-AMP). During the second step, 5'-AMP is quantitatively converted into adenosine and inorganic phosphate (Pi) through the action of a 5-nucleotidase. The reaction is followed by the measurement of the Pi formed by reading the absorbance at 660 nm after reacting with ammonium molybdate. The amount of Pi formed is directly related to the phosphodiesterase activity which depends on the level of activation by calmodulin.
To sample assay tubes were added the following components: assay buffer, 25 ul; CaCl2, 5 ul; 5'-nucleotidase, 7.5 ul (stock solution is 10 units/ml); calmodulin 5 units; calmodulin inhibitor peptides to obtain the desired final concentration of 50 μM. The volume was then made up to 200 ul with water. Control blanks were prepared replacing the peptides with water. The added components were thoroughly mixed and the tubes incubated at 30° C. for 10 min. […] The samples were centrifuged to remove the protein precipitate and the 50 ul of the supernatant was withdrawn for phosphate measurement. […] The absorbance of the solution were read at 660 nm using water as a blank, identified as control "Calmo."
The two controls used in the assay, one without and one with calmodulin, as indicated in FIG. 1 and Table I were as follows,: (1) PDE:
These three controls were used in the calcium-dependent phosphodiesterase assay for reproducibility of the assay.
In addition to the calcium-dependent phosphodiesterase assay data, IC50 values were determined for many of the peptides. The assay carried out for the determination in the IC50 values differed from the above screening assay by the concentration of the peptides being tested.
(3) TFP: trifluoperazine; and (4) Calmidasolium: (1-[bis-(4-chlorophenyl)methyl]-3[-2-(2,4-dichlorophenyl)-2[(2,4-dichlorophenyl)methoxy]-ethyl]-1H-imidazolium chloride. The IC50 values were calculated using sigmoidal curve software (Graphpad, ISI; San Diego, Calif.) using the % inhibition at different mixture concentrations (see protocol for determination of % inhibition).
The (L)-amino acid counterpart for five (5) of the all (D)-amino acid peptides identified from the PS-SCL were synthesized in order to study the stereoselectivity of the inhibition.

NRK cells = assay: long term stability: number of NRK cells at 48 hr after activation; assay type: cell-based, rat; settings: added at 5 hr, counted 48 hr after activation
Excerpt: The similar activity found for the (L)-amino acid peptides and (D)-amino acid peptides indicate that the inhibition of calmodulin occurs rapidly following the addition of the inhibitory peptides. The peptides' long term stability was then studied by adding Ac-(D)Leu-(D)Trp-(D)Arg-(D)Ile-(D)Leu-(D)Trp-NH2, Ac-Leu-Trp-Arg-Ile-Leu-Trp-NH2 (SEQ ID No. 48), W13 and W12 at 5 hr following the reentry of the NRK cells into the cell cycle and measuring the number of cells at 48 hr after activation.

[2] = Table I, assayed at 75, 50 and 12.5 μM, average of repeated assays, read-out: Average IC50

IC50 (phosphodiesterase)	IC50 (calmodulin; [2])	IC50 (calmodulin; Table III, in the presence of calmodulin, read-out: IC50 (μM) for calmodulin)	SPECIFICITY (calmodulin; comparison of IC50 for phosphodiesterase with IC50 for calmodulin)	Structure (SMILES)	% DNA SYNTHESIS ([1]; 7.5 μM)	% DNA SYNTHESIS ([1]; 15 μM)	% DNA SYNTHESIS (rat liver cells)	number of cells relative to control cells (NRK cells)	% DNA SYNTHESIS ([1]; 30 μM)
104 µM	70 µM	43 µM	2.4	CC[C@@H](C)[C@@H](NC(=O)[C@@H](CCC(N)=O)NC(=O)[C@@H](CC(C)C)NC(C)=O)C(=O)N[C@H](Cc1c[nH]cn1)C(=O)N[C@H](CC(C)C)C(=O)N[C@H](CCCNC(=N)N)C(N)=O [Ac-(D)Leu-(D)Gln-(D)Ile-(D)His-(D)Leu-(D)Arg-NH2] (Ac-[dL][dQ][dI][dH][dL][dR]-NH2)	100%	84%	100%		
				NCCCCNS(=O)(=O)c1ccc2ccccc2c1 [Peptide W12, reference compound]				the same number of cells	100%
	93 µM			NCCCCNS(=O)(=O)c1ccc2c(Cl)cccc2c1 [Peptide W13, N-(4-aminobutyl)-5-chloro-2-naphtalenesulfonamide, reference compound]				significantly lower number of cells	60%
